Source: PubChem BioAssay (NCI)
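Method: 48-hour compound exposure of cells in 96-well plates, five concentrations, linear interpolation of endpoints. GI50: concentration for 50% inhibition of growth. TGI: concentration producing complete growth inhibition.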

Columns and labels:
Experiment in all cases: DTP human tumour cell line panel, 48 h
HCT-116 colon = tested on: HCT-116 colon
MALME-3M melanoma = tested on: MALME-3M melanoma
MDA-MB-231 breast = tested on: MDA-MB-231 breast
MDA-MB-435 = tested on: MDA-MB-435
NCI-H23 lung = tested on: NCI-H23 lung
SK-OV-3 ovarian = tested on: SK-OV-3 ovarian
SNB-75 CNS = tested on: SNB-75 CNS
SR leukemia = tested on: SR leukemia
T-47D breast = tested on: T-47D breast
UO-31 renal = tested on: UO-31 renal

SMILES | GI50 (HCT-116 colon) [µM] | TGI (HCT-116 colon) [µM] | GI50 (MALME-3M melanoma) [µM] | TGI (MALME-3M melanoma) [µM] | GI50 (MDA-MB-231 breast) [µM] | TGI (MDA-MB-231 breast) [µM] | GI50 (MDA-MB-435) [µM] | TGI (MDA-MB-435) [µM] | GI50 (NCI-H23 lung) [µM] | TGI (NCI-H23 lung) [µM] | GI50 (SK-OV-3 ovarian) [µM] | TGI (SK-OV-3 ovarian) [µM] | TGI (SNB-75 CNS) [µM] | GI50 (SR leukemia) [µM] | TGI (SR leukemia) [µM] | GI50 (T-47D breast) [µM] | TGI (T-47D breast) [µM] | GI50 (UO-31 renal) [µM] | TGI (UO-31 renal) [µM] | GI50 (SNB-75 CNS) [µM]
CN1CCN(CC(=O)N(C)c2ccc(N=C(c3ccccc3)c3c(O)[nH]c4ccc(C#N)cc34)cc2)CC1 | 1.02 | 2.47 | 1.77 | 3.39 | 2.66 | 6.32 | 1.66 | 4.04 | 2.87 | 12.2 | 0.614 | 21.1 | 5.49 | 0.721 | 5.62 | 14.2 | 41.1 | 2.42 | 11.4 | –
C#Cc1cccc(Nc2ncnc3cc(NC(=O)CCl)ccc23)c1 | 1.19 | 4.15 | 2.8 | 6.65 | 3.35 | 7.28 | 1.27 | 5.17 | 3.26 | 8.01 | 3.5 | 11.5 | 5.01 | 0.535 | 4.08 | 2.43 | 5.93 | 2.55 | 5.6 | 1.53
CSC1=NC(=Nc2c(C)cccc2C)C2(CCC(C(C)(C)C)CC2)N1c1ccc(Cl)cc1 (centres undefined) | 4.87 | > 100 | 42.6 | > 100 | > 100 | > 100 | 30.9 | > 100 | 24.7 | > 100 | > 100 | > 100 | > 100 | 4.21 | > 100 | 20.8 | > 100 | 25.2 | > 100 | > 100
COc1ccc(C(O)c2cc3c(N)c(C(=O)Nc4ccc(Cl)cc4)sc3nc2C)cc1 (centres undefined) | 2.01 | 14.3 | 2.04 | 18.9 | 4.9 | 28.8 | 0.317 | 1.17 | 5.07 | 52.5 | 3.21 | 15.5 | 7.25 | 0.44 | > 100 | 3.29 | 50.5 | 3.8 | 23 | 1.88
CCN(CC)c1ccc(/C=C/C(=O)c2ccc(Nc3nc(Nc4ccccc4)nc(Nc4ccccc4)n3)cc2)cc1 | 2.47 | > 100 | 9.52 | > 100 | 13.5 | > 100 | 9.26 | > 100 | 11.1 | > 100 | 10.6 | > 100 | 64.8 | 1.03 | 3.86 | 2.65 | 41 | 2.69 | > 100 | 3.9
c1ccc(-c2oc(-c3ccccc3)c(CN3CCCCC3)c2CN2CCCCC2)cc1 | 1.05 | 11.2 | 1.75 | 3.65 | 1.77 | 6.06 | 2.73 | 10.6 | 3.21 | 13 | 3.97 | 17 | 18.6 | 2.52 | 6.06 | 2.71 | 11.7 | 2.13 | 11.1 | 4.13
COc1cc2oc(-c3cccc(C(=O)Nc4ccc(Cl)cc4)c3)cc(=O)c2c(OC)c1OC | 1.9 | > 100 | 2.48 | 7.26 | 1.58 | > 100 | 3.15 | > 100 | 3.6 | > 100 | 3.41 | > 100 | > 100 | 0.493 | > 100 | 1.68 | > 100 | 2.85 | > 100 | 2.66
CCN1CCN(c2nc(C)cc(N(CCCNc3ccnc4cc(Cl)ccc34)Cc3ccc4c(c3)OCO4)n2)CC1 | 1.1 | 3.02 | 1.77 | 3.34 | 1.2 | 2.9 | 1.56 | 3.06 | 2.61 | 10.1 | 2.58 | 6.7 | 3.1 | 0.339 | 1.58 | 2.04 | 4.53 | 1.31 | 2.64 | 1.48
COc1cc(/C=C2\C(=O)N(Cc3ccc(Cl)cc3)c3ccccc32)cc(OC)c1OC | 1.68 | 3.19 | 3.73 | 16.3 | 2.48 | 18.4 | 2.32 | 7.03 | 2.92 | 13.5 | 6.82 | > 89.4 | > 100 | 1.51 | 4.19 | 2.16 | 7.72 | 2.06 | 6.8 | 5.31
